Laboratory results as given in patent US8518906B2, “Rho kinase inhibitors for treatment of mastocytosis and acute myeloid leukemia” (Indiana University Research & Technology Corporation, priority 2011, dated 2013).
Like-named read-outs stand apart in the source and are kept apart here.

Columns and labels:
[1] = test system: primary HSC/Ps bearing FLT3N51; assay: Proliferation, primary HSC/Ps transduced with FLT3N51; format: cell-based, C57BL/6 mice
Experimental: Retroviral supernatants for transduction of 32D and primary HSC/Ps were generated using the Phoenix ecotropic packaging cell line transfected with retroviral vector plasmids using a calcium phosphate transfection kit (Invitrogen, Carlsbad, Calif.). Supernatants were collected 48 hours after transfection and filtered through […] membranes. 32D cells were infected with 2 mL high-titer virus supernatant in the presence of polybrene (8 μg/mL) and IL-3 (10 ng/mL). Low density mononuclear cells (LDMNCs) were suspended in IMDM containing 20% FBS and 1% penicillin/streptomycin, and pre-stimulated in non-tissue culture plates supplemented with SCF (100 ng/mL), FL T3L (50 ng/mL), IL-6 (4 ng/mL), and Tpo (100 ng/mL) for 48 hours prior to retroviral infection on fibronectin fragments. After infection, 32D and primary HSC/Ps bearing the vector, WT or oncogenic receptors were sorted to homogeneity based on EGFP expression and used to perform all experiments.
To validate whether the suppression in growth of oncogene bearing cells by ROCK inhibitors observed in 32D cells also occurs in primary hematopoietic stem and progenitor cells (HSC/Ps), primary HSC/Ps from C57BL/6 mice were transduced with FLT3 or FLT3N51 and analyzed for proliferation in the presence or absence of ROCK inhibitors.

[2] = test system: AKT, ERK, Stat5, PKA and PKC; assay: Activation of AKT, ERK, Stat5, PKA and PKC in oncogene bearing cells, Western blot; format: cell-based, murine
Experimental: Cells were lysed in lysis buffer and centrifuged at 10,000 rpm for 5 min at 4° C. Supernatants were collected and protein concentration was determined using the BCA protein assay (Thermo Fisher Scientific, Rockford, Ill.). Equal amounts of protein extracts were mixed with gel loading buffer and separated on SDS-polyacrylamide gels. After electrophoresis, the proteins were transferred onto nitrocellulose membranes and nonspecific binding was blocked with 5% nonfat dry milk in Tris-buffered saline containing 0.1% Tween-20 (TBS-T). Membranes were then probed with various antibodies overnight at 4° C. on a rocker. After incubation, membranes were washed with TBS-T and incubated with appropriate horseradish peroxidase (HRP)-conjugated secondary antibodies for 1 hour at room temperature. Finally, the proteins on the membranes were detected using SuperSignal West Dura Luminol/Enhancer solution (Thermo Fisher Scientific, Rockford, Ill.) and exposing the membranes to X-ray film.

[3] = test system: 32D cells bearing MIEG3 or KIT, BaF3 cells bearing FLT3; assay: Proliferation (thymidine incorporation), cells bearing MIEG3, KIT or FLT3 with IL-3; format: cell-based, murine; details: cells bearing MIEG3, KIT or FLT3, in the presence of IL-3
Experimental: (§1) The murine IL-3 dependent and G418 resistant pro-B cell line BaF3 bearing FLT3 and FLT3N51 were cultured in medium containing IMDM supplemented with 10% FBS, G418 (2 mg/mL), and murine IL-3 (5 ng/mL). The Human mast cell leukemia line, bearing the KITV560G as well as KITD816V mutations, HMC1.2 and acute myeloid leukemia (AML) cell line, bearing the FLT3-ITD mutation, MV4-11 were obtained from the American Type Culture Collection (Manassas, Va.) and cultured in medium containing IMDM supplemented with 15% FBS and 1.2 mM monothioglycerol.
IL-3 enhances the growth of these cells.

[4] = test system: 32D cells bearing BCR-ABLT315I; assay: Proliferation, 32D cells expressing imatinib-resistant BCR-ABLT315I mutant; format: cell-based, murine
[5] = test system: HMC1.2 cells (KITV560G and KITD816V); assay: Growth of HMC1.2 cells; format: cell-based, Human
Experimental: as §1
(§2) Specifically, the growth of HMC1.2 cells bearing the activating KIT mutation (KITV560G and KITD816V) and MV4-11 cells bearing the activating FLT3 mutation (FLT3-ITD) treated with H-1152 was determined.

[6] = test system: MV4-11 cells (FLT3-ITD); assay: Growth of MV4-11 cells; format: cell-based, Human
Experimental: as §1, §2

[7] = test system: cells derived from AML and mastocytosis patients; assay: Growth (thymidine incorporation) of cells derived from AML and mastocytosis patients; format: cell-based, human
Description: (§3) Blast cells from the bone marrow of patients with AML were obtained at the time of diagnostic testing. Approval was obtained from the institutional review boards of Indiana University School of Medicine. The buoyant fraction was isolated over Ficoll-Hypaque, and then washed with phosphate-buffered saline (PBS) before processing.
as §2

[8] = test system: ROCK; assay: ROCK activity (pMYPT1) in cells derived from AML and mastocytosis patients; format: cell-based, human
Description: as §3, §2

[9] = test system: cells bearing CHRD814V or CHRD814V-Y719; assay: Constitutive growth of cells bearing CHRD814V or CHRD814V-Y719; format: cell-based
Description: (§4) Utilizing Chimeric KIT receptors (CHR) as template, we generated the mutant CHRD814V and CHRD814V with none (CHRD814V-F7) or single intracellular tyrosine add-back mutant at 719 (CHRD814V-Y719) using the Quick change Site-Directed Mutagenesis kit (Stratagene, La Jolla, Calif.) and the following primer pair (SEQ ID NO: 2: forward: 5′-[…]-3; SEQ ID NO: 3: reverse: 5′-[…]-3′). All of these mutated CHRD814V receptors were verified by direct sequencing.
(§5) CHRD814V-Y719 is similar to CHRD814V-F7 except that tyrosine residue 719 (the binding site for p85α) is preserved.

[10] = test system: cells bearing CHRD814V-F7; assay: Growth of cells bearing CHRD814V-F7 in the presence of IL-3; format: cell-based; details: cells bearing CHRD814V-F7, in the presence of IL-3, data not shown
Description: as §4, §5

[11] = test system: mice transplanted with 32D cells bearing FLT3N51; assay: MPD and survival of mice transplanted with 32D cells bearing FLT3N51; format: in vivo, C3H/HeJ mice; details: treated for 21 days starting two weeks after transplantation, vs PBS
Experimental: To further determine the efficacy of ROCK inhibitors in treating MPD due to activating mutations in receptor tyrosine kinases, similar pharmacological studies were performed using a different oncogene and a distinct ROCK inhibitor. 32D cells bearing FLT3N51 were transplanted into syngenic C3H/HeJ mice through tail vein. After two weeks of transplantation, mice were treated with PBS (vehicle), H-1152, or fasudil for 21 days and monitored for MPD and survival. […] After 5 weeks of prolonged survival compared to PBS treated mice, H-1152 or fasudil treated mice were sacrificed and further analysis were performed.

[12] = test system: KIT or MIEG3 bearing 32D cells; assay: Cell death (annexin V and 7-AAD), KIT or MIEG3 bearing 32D cells; format: cell-based, murine
Experimental: 2×10^5 cells were plated in 24 well plates in the presence and absence of IL-3 and indicated concentrations of different ROCK inhibitors. Forty eight hours after treatment, cells were washed with PBS and the percentage of cell death was determined by annexin V and 7-AAO staining. Cells were re-suspended in 1× annexin V binding buffer and incubated for 30 min at 4° C. Cells were incubated with 5 μL each of annexin V and 7-AAO for 20 min at room temperature in the dark. After incubation, percentage of apoptotic cells (annexin V and 7-AAO positive) was determined using flow cytometry.
In this Example, the survival of oncogene bearing cells in the presence or absence of ROCK inhibitors was evaluated to determine how ROCK inhibitors might inhibit the growth of oncogene bearing cells.

[13] = test system: 32D cells bearing KIT; assay: F-actin content, 32D cells bearing KIT with IL-3; format: cell-based, murine; details: in the presence of IL-3
Experimental: After treatment, cells were fixed with 4% paraformaldehyde in PBS for 15 min and washed with PBS. After fixing, cells were quenched with 0.1 M glycine in PBS for 15 min and washed with PBS. Then, cells were permeabilized with 0.2% Triton X-100 (w/v) in PBS for 10 min and washed with PBS followed by blocking non-specific binding sites with 5% rat serum containing 0.2% BSA in PBS. Cells were stained with FITC-conjugated phalloidin for 30 min, washed with 0.2% BSA in PBS, and analyzed by flow cytometry.

[14] = Experimental: After 48 hours of transplantation, mice were treated with vehicle (PBS) or H-1152 (66 mg/kg body weight) by oral gavage at 12 hours interval for 14 days. In the second study, mice were treated with vehicle, H-1152 (50 mg/kg body weight, oral gavage) or fasudil (25 mg/kg body weight, intraperitoneal) at 24 hour intervals for 21 days. […] After 10 days of transplantation, mice were treated with vehicle, H-1152 (50 mg/kg body weight, oral gavage) or fasudil (25 mg/kg body weight, intraperitoneal) at 24 hour intervals for 21 days. In all studies, mice were closely monitored for MPD and harvested at moribund. Bone marrow, spleen, liver and lungs were fixed in 10% buffered formalin and sections were stained with hematoxylin and eosin for histopathologic analysis.
[15] = human trials for cardiovascular indications; cited from earlier work

Row | Compound | proliferation (thymidine incorporation) [1] | activation of AKT, ERK, Stat5, and PKC ([2]; Example 1) | activation of ERK, AKT, Stat5, PKA and PKC ([2]; Example 8) | proliferation (thymidine incorporation) [3] | growth of cells bearing BCR-ABLT315I [4] | growth of HMC1.2 cells [5] | growth of MV4-11 cells [6] | growth (thymidine incorporation) [7] | ROCK activity [8] | constitutive growth (thymidine incorporation) [9] | growth [10] | spleen and liver weights [11] | survival [11] | cell death [12] | F-actin content [13] | signs of toxicity ([14]; treated mice) | signs of toxicity ([14]; mouse, in vivo) | toxicity upon ROCK inhibition in vivo [15]
1 | C[C@@H](N)[C@H]1CC[C@H](C(=O)Nc2ccncc2)CC1 [Y27632] | significant reduction in the growth |  |  |  |  |  |  |  |  |  |  |  |  |  |  |  |  | 
2 | Cc1cncc2cccc(S(=O)(=O)N3CCCNC[C@@H]3C)c12 [H-1152] | significant reduction in proliferation | no effect | relatively unperturbed | minimal suppression in proliferation | dose dependent suppression in growth | dose dependent reduction in growth | dose dependent reduction in growth | repression in ROCK activity and growth | repression in ROCK activity | dose dependent inhibition in constitutive growth | only a moderate suppression in growth | significantly reduced spleen and liver weights | significantly prolonged the survival | 5-10% | no effect on F-actin content | no signs of toxicity |  | 
3 | O=S(=O)(c1cccc2cnccc12)N1CCCNCC1 [fasudil] | significant reduction in the growth |  |  |  |  |  |  |  |  |  |  | significantly reduced spleen and liver weights |  |  |  |  | no signs of toxicity | lack of toxicity
